Laboratory results taken from US11708348B2, “Protease inhibitors for treatment of coronavirus infections” (The Scripps Research Institute, priority 2021, dated 2023).
Like-named read-outs stand apart in the source and are kept apart here.

Test system: SARS-CoV-2 strain USA-WA1/2020
Assay: microbe, parasite or virus in culture
Assay type: cell-based
Conditions: Severe acute respiratory syndrome coronavirus 2, HeLa-ACE2, 24 h, HeLa-ACE2 cells, SARS-CoV-2 infection, 24 h, read-out: EC50, uM (Hela)

Compound	EC50 [µM]	EC50 (class symbols) [µM]	other results
O=C1NCC[C@H]1C[C@H](NC(=O)[C@@H]1CC2(CC2)CN1C(=O)CC1CC(F)(F)C1)C(=O)COC(F)(F)F [Compound 701, (S)-5-(2-(3,3-difluorocyclobutyl)acetyl)-N-((S)-3-oxo-1-((S)-2-oxopyrrolidin-3-yl)-4-(trifluoromethoxy)butan-2-yl)-5-azaspiro[2.4]heptane-6-carboxamide]	< 0.05	–	–
CC[C@@H](OC(F)(F)F)C(=O)N1C[C@H]2[C@@H]([C@H]1C(=O)N[C@@H](C[C@@H]1CCNC1=O)C(=O)COC(F)(F)F)C2(C)C [Compound 335, (1R,2S,5S)-6,6-dimethyl-N-((S)-3-oxo-1-((S)-2-oxopyrrolidin-3-yl)-4-(trifluoromethoxy)butan-2-yl)-3-((R)-2-(trifluoromethoxy)butanoyl)-3-azabicyclo[3.1.0]-hexane-2-carboxamide]	–	< 0.05	–
CC(C)Cn1cc(C(=O)N2CC3(CC3)C[C@H]2C(=O)N[C@@H](C[C@@H]2CCNC2=O)C(=O)COC(F)(F)F)nn1 [Compound 695, (S)-5-(1-isobutyl-1H-1,2,3-triazole-4-carbonyl)-N-((S)-3-oxo-1-((S)-2-oxopyrrolidin-3-yl)-4-(trifluoromethoxy)butan-2-yl)-5-azaspiro[2.4]heptane-6-carboxamide]	0.05 to 0.2	–	–
O=C1NCC[C@H]1C[C@H](NC(=O)[C@@H]1CC2(CC2)CN1C(=O)C(O)c1cc(F)c(F)c(F)c1)C(=O)COC(F)(F)F (stereo partly drawn) [Compound 399, (6S)-5-(2-hydroxy-2-(3,4,5-trifluorophenyl)acetyl)-N-((S)-3-oxo-1-((S)-2-oxopyrrolidin-3-yl)-4-(trifluoromethoxy)butan-2-yl)-5-azaspiro[2.4]heptane-6-carboxamide]	–	0.05 to 0.2	–
CC[C@@H](O)C(=O)N[C@@H](CC1(C)CC1)C(=O)N[C@@H](C[C@@H]1CCNC1=O)C(=O)COC(F)(F)F [Compound 376, (R)-2-hydroxy-N-((S)-3-(1-methylcyclopropyl)-1-oxo-1-(((S)-3-oxo-l-((S)-2-oxopyrrolidin-3-yl)-4-(trifluoromethoxy)butan-2-yl)amino)propan-2-yl)butanamide]	–	–	EC50 (bound printed in cell): > 1 µM
COc1cccc2[nH]c(C(=O)N3CC4(CC4)C[C@H]3C(=O)N[C@@H](C[C@@H]3CCNC3=O)C(=O)COC(F)(F)F)cc12 [Compound 605, (S)-5-(4-methoxy-1H-indole-2-carbonyl)-N-((S)-3-oxo-1-((S)-2-oxopyrrolidin-3-yl)-4-(trifluorometh-oxy)butan-2-yl)-5-azaspiro[2.4]heptane-6-carboxamide]	< 0.05	–	–
CC(C)C[C@H](NC(=O)c1cc(-c2ccccn2)on1)C(=O)N[C@@H](C[C@@H]1CCNC1=O)C(=O)COC(F)(F)F [Compound 464, N-((S)-4-methyl-1-oxo-1-(((S)-3-oxo-1-((S)-2-oxopyrrolidin-3-yl)-4-(trifluoromethoxy)butan-2-yl)amino)pentan-2-yl)-5-(pyridin-2-yl)isoxazole-3-carboxamide]	< 0.05	–	–
CC(C)C[C@H](NC(=O)C(=O)Nc1ccc(F)c(F)c1)C(=O)N[C@@H](C[C@@H]1CCNC1=O)C(=O)COc1c(F)c(F)cc(F)c1F [Compound 53, N1-(3,4-difluorophenyl)-N2-((S)-4-methyl-1-oxo-1-(((S)-3-oxo-1-((S)-2-oxopyrrolidin-3-yl)-4-(2,3,5,6-tetrafluorophenoxy)butan-2-yl)amino)pentan-2-yl)oxalamide]	–	0.05 to 0.2	–
CC(C)CC(=O)N1CC2(CC2)C[C@H]1C(=O)N[C@@H](C[C@@H]1CCNC1=O)C(=O)COC(F)(F)F [Compound 707, (S)-5-(3-methylbutanoyl)-N-((S)-3-oxo-1-((S)-2-oxopyrrolidin-3-yl)-4-(trifluoromethoxy)butan-2-yl)-5-azaspiro[2.4]heptane-6-carboxamide]	0.05 to 0.2	–	–
CC(C)C[C@H](NC(=O)C(=O)NC1(CO)CC1)C(=O)N[C@@H](C[C@@H]1CCNC1=O)C(=O)COC(F)(F)F [Compound 231, Nl-(l-(hydroxymethyl)-cyclopropyl)-N2-((S)-4-methyl-1-oxo-1-(((S)-3-oxo-1-((S)-2-oxopyrrolidin-3-yl)-4-(trifluoromethoxy)butan-2-yl)amino)pentan-2-yl)oxalamide]	–	0.5 to 1	–
